“And” between values parts separate entries of the source, which are not always exact repeats. Identical values can stand only once. Toxic doses and inconclusive results are not listed.
System: BDF1 mice, P388 leukemia ip, median survival T/C
Experiment: NCI In Vivo Anticancer Drug Screen. Data for tumor model P388 Leukemia (intraperitoneal) in B6D2F1 (BDF1) mice
Settings: endpoint: median survival time, higher = longer survival
Method in brief: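 Each value expresses how treatment altered survival: treated-mouse outcome over vehicle-mouse outcome, both groups bearing the transplanted tumour.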

[1] = dose: 100.0 mg/kg/injection, schedule: Q01DX009 (ip), vehicle: saline with Tween-80
[2] = dose: 200.0 mg/kg/injection, schedule: Q01DX009 (ip), vehicle: saline with Tween-80
[3] = dose: 50.0 mg/kg/injection, schedule: Q01DX009 (ip), vehicle: saline with Tween-80
[4] = dose: 25.0 mg/kg/injection, schedule: Q04DX003 (ip), vehicle: saline with Tween-80
[5] = dose: 100.0 mg/kg/injection, schedule: Q04DX003 (ip), vehicle: saline with Tween-80
[6] = dose: 200.0 mg/kg/injection, schedule: Q04DX003 (ip), vehicle: saline with Tween-80
[7] = dose: 400.0 mg/kg/injection, schedule: Q01DX009 (ip), vehicle: saline with Tween-80
[8] = dose: 400.0 mg/kg/injection, schedule: Q04DX003 (ip), vehicle: saline with Tween-80
[9] = dose: 100.0 mg/kg/injection, schedule: Q04DX003 (ip), vehicle: Klucel (hydroxypropylcellulose) (HPC)
[10] = dose: 200.0 mg/kg/injection, schedule: Q01DX009 (ip), vehicle: saline
[11] = dose: 400.0 mg/kg/injection, schedule: Q01DX009 (ip), vehicle: saline
[12] = dose: 100.0 mg/kg/injection, schedule: Q04DX003 (ip), vehicle: saline
[13] = dose: 200.0 mg/kg/injection, schedule: Q04DX003 (ip), vehicle: saline
[14] = dose: 400.0 mg/kg/injection, schedule: Q04DX003 (ip), vehicle: saline

CCCCCC(O)CCCCC
T/C [1]: 104 % of control
T/C [2]: 95 % of control

Nc1ncncc1-c1cccc2ccccc12
T/C [3]: 108 % of control
T/C [1]: 99 % of control
T/C [2]: 108 % of control

Cc1[nH]c(=O)[nH]c(=O)c1N(CCF)CCCl
T/C (dose: 5.0 mg/kg/injection, schedule: Q01DX009 (ip), vehicle: Klucel (hydroxypropylcellulose) (HPC)): 150 % of control
T/C (dose: 10.0 mg/kg/injection, schedule: Q01DX009 (ip), vehicle: Klucel (hydroxypropylcellulose) (HPC)): 172 % of control
T/C (dose: 10.0 mg/kg/injection, schedule: Q01DX009 (ip), vehicle: saline): 162 % of control
T/C (dose: 16.5 mg/kg/injection, schedule: Q04DX003 (ip), vehicle: saline with Tween-80): 168 % of control
T/C [4]: 204 % of control
T/C (dose: 37.5 mg/kg/injection, schedule: Q04DX003 (ip), vehicle: saline with Tween-80): 200 % of control

CC#CCOCC(CCl)OC(=O)Nc1ccccc1 (configuration not stated)
T/C [1]: 100 % of control
T/C [5]: 120 % of control
T/C [2]: 112 % of control
T/C [6]: 110 % of control
T/C [7]: 108 % of control
T/C [8]: 100 % of control

ClC1=C(Br)C(Br)(Br)C(=C(Br)Br)C1(Br)Br
T/C [1]: 100 % of control
T/C [9]: 90 % of control
T/C [2]: 109 % of control
T/C [7]: 104 % of control
T/C (dose: 400.0 mg/kg/injection, schedule: Q04DX003 (ip), vehicle: Klucel (hydroxypropylcellulose) (HPC)): 100 % of control

CCCC1CC[N-]CC1.CCCC1CC[N-]CC1.[Cl][Co][Cl]
T/C (dose: 12.5 mg/kg/injection, schedule: Q01DX009 (ip), vehicle: water): 91 % of control and 100 % of control
T/C (dose: 25.0 mg/kg/injection, schedule: Q01DX009 (ip), vehicle: water): 116 % of control
T/C (dose: 50.0 mg/kg/injection, schedule: Q01DX009 (ip), vehicle: water): 112 % of control
T/C (dose: 50.0 mg/kg/injection, schedule: Q04DX003 (ip), vehicle: water): 120 % of control

CC(C)CC(NC(=O)CN)C(=O)O (configuration not stated)
T/C (dose: 25.0 mg/kg/injection, schedule: Q01DX009 (ip), vehicle: saline with Tween-80): 98 % of control
T/C [3]: 99 % of control
T/C [1]: 102 % of control
T/C [2]: 111 % of control
T/C [10]: 118 % of control
T/C [11]: 96 % of control

CC(=O)OCc1c(COC(C)=O)c(-c2ccccc2)n2c1CCC2
T/C (dose: 6.25 mg/kg/injection, schedule: Q01DX009 (ip), vehicle: Klucel (hydroxypropylcellulose) (HPC)): 107 % of control

Cc1nnc2sc3c(Cl)c4nn5c(C)nnc5sc4c(Cl)c3nn12
T/C [3]: 92 % of control
T/C [1]: 100 % of control

Nc1ccn[nH]1
T/C (dose: 100.0 mg/kg/injection, schedule: Q01DX009 (ip), vehicle: saline): 100 % of control
T/C [12]: 100 % of control
T/C [10]: 100 % of control
T/C [13]: 109 % of control
T/C [11]: 118 % of control
T/C [14]: 122 % of control

O=C(Cn1ccc(O)cc1=O)N1CCOCC1
T/C (dose: 100.0 mg/kg/injection, schedule: Q01DX009 (ip), vehicle: water): 105 % of control
T/C (dose: 200.0 mg/kg/injection, schedule: Q01DX009 (ip), vehicle: water): 104 % of control
T/C (dose: 400.0 mg/kg/injection, schedule: Q01DX009 (ip), vehicle: water): 104 % of control

O=C(NO)c1cccnc1
T/C (dose: 300.0 mg/kg/injection, schedule: Q01DX010 (ip), vehicle: water): 119 % of control
T/C (dose: 400.0 mg/kg/injection, schedule: Q01DX010 (ip), vehicle: water): 109 % of control and 118 % of control
T/C (dose: 600.0 mg/kg/injection, schedule: Q01DX010 (ip), vehicle: water): 150 % of control and 154 % of control

CC1CCCC(C)(CO)O1 (configuration not stated)
T/C [12]: 115 % of control
T/C [13]: 115 % of control
T/C [14]: 105 % of control

CCCCCCCCCCCCCC[n+]1ccccc1
T/C (dose: 16.0 micrograms/kg/injection, schedule: Q01DX009 (ip), vehicle: saline with Tween-80): 87 % of control
T/C (dose: 32.0 micrograms/kg/injection, schedule: Q01DX009 (ip), vehicle: saline with Tween-80): 100 % of control
T/C (dose: 62.5 micrograms/kg/injection, schedule: Q01DX009 (ip), vehicle: saline): 113 % of control
T/C (dose: 62.5 micrograms/kg/injection, schedule: Q01DX010 (ip), vehicle: saline): 115 % of control
T/C (dose: 125.0 micrograms/kg/injection, schedule: Q01DX009 (ip), vehicle: saline): 122 % of control
T/C (dose: 250.0 micrograms/kg/injection, schedule: Q01DX010 (ip), vehicle: saline): 110 % of control

O=c1cc(CBr)c2ccccc2[nH]1
T/C (dose: 6.25 mg/kg/injection, schedule: Q04DX003 (ip), vehicle: saline with Tween-80): 91 % of control
T/C (dose: 12.5 mg/kg/injection, schedule: Q04DX003 (ip), vehicle: saline with Tween-80): 104 % of control
T/C [4]: 104 % of control

Cc1ccc(S(=O)(=O)/N=C/NN(C)C)cc1
T/C [3]: 97 % of control
T/C [1]: 112 % of control
T/C [2]: 98 % of control

CC1=C(Cc2ccccc2)C(C)(C)CCC1
T/C [3]: 103 % of control
T/C [1]: 112 % of control
T/C [2]: 121 % of control

O=c1[nH]c2ccc(I)cc2c(=O)o1
T/C [5]: 109 % of control
T/C [6]: 104 % of control
T/C [8]: 109 % of control

O=C1Oc2ccccc2C(=O)/C1=C1/C=C(c2ccccc2)SS1
T/C [3]: 90 % of control
T/C [1]: 88 % of control
T/C [2]: 90 % of control

O=C(NCCc1ccccc1)Nc1ccccc1
T/C (dose: 75.0 mg/kg/injection, schedule: Q01DX009 (ip), vehicle: saline with Tween-80): 95 % of control
T/C (dose: 150.0 mg/kg/injection, schedule: Q01DX009 (ip), vehicle: saline with Tween-80): 104 % of control
T/C (dose: 300.0 mg/kg/injection, schedule: Q01DX009 (ip), vehicle: saline with Tween-80): 109 % of control

O=C1c2ccccc2C(=O)N1CN1CCN(c2ccc(F)cc2)CC1
T/C (dose: 50.0 mg/kg/injection, schedule: Q01DX005 (ip), vehicle: saline with Tween-80): 103 % of control
T/C (dose: 100.0 mg/kg/injection, schedule: Q01DX005 (ip), vehicle: saline with Tween-80): 94 % of control
T/C (dose: 200.0 mg/kg/injection, schedule: Q01DX005 (ip), vehicle: saline with Tween-80): 103 % of control

[NH-]C(Cc1ccc(O)cc1)C(=O)O.[NH-]C(Cc1ccc(O)cc1)C(=O)O.[Ni+2] (configuration not stated)
T/C (dose: 2.0 mg/kg/injection, schedule: Q01DX009 (ip), vehicle: saline): 111 % of control
T/C (dose: 4.0 mg/kg/injection, schedule: Q01DX009 (ip), vehicle: saline): 107 % of control
T/C (dose: 8.0 mg/kg/injection, schedule: Q01DX009 (ip), vehicle: saline): 121 % of control
T/C (dose: 25.0 mg/kg/injection, schedule: Q04DX003 (ip), vehicle: saline): 112 % of control
T/C (dose: 50.0 mg/kg/injection, schedule: Q04DX003 (ip), vehicle: saline): 114 % of control

N#CC(c1ccccc1)C1CCCCC1 (configuration not stated)
T/C (dose: 75.0 mg/kg/injection, schedule: Q04DX003 (ip), vehicle: saline): 111 % of control
T/C (dose: 150.0 mg/kg/injection, schedule: Q04DX003 (ip), vehicle: saline): 107 % of control
T/C (dose: 300.0 mg/kg/injection, schedule: Q04DX003 (ip), vehicle: saline): 115 % of control

Cc1cccc(NC(=O)c2ccccc2Cl)c1C
T/C [5]: 109 % of control
T/C [6]: 90 % of control
T/C [8]: 90 % of control

Cc1ccc(N2C(=O)CC(Sc3ccccc3N)C2=O)cc1 (configuration not stated)
T/C (dose: 50.0 mg/kg/injection, schedule: Q01DX009 (ip), vehicle: Klucel (hydroxypropylcellulose) (HPC)): 105 % of control
T/C (dose: 100.0 mg/kg/injection, schedule: Q01DX001 (ip), vehicle: saline): 100 % of control
T/C (dose: 100.0 mg/kg/injection, schedule: Q01DX009 (ip), vehicle: Klucel (hydroxypropylcellulose) (HPC)): 105 % of control
T/C [9]: 95 % of control
T/C (dose: 200.0 mg/kg/injection, schedule: Q01DX001 (ip), vehicle: saline): 90 % of control
T/C (dose: 200.0 mg/kg/injection, schedule: Q01DX009 (ip), vehicle: Klucel (hydroxypropylcellulose) (HPC)): 105 % of control
T/C (dose: 200.0 mg/kg/injection, schedule: Q04DX003 (ip), vehicle: Klucel (hydroxypropylcellulose) (HPC)): 87 % of control
T/C (dose: 400.0 mg/kg/injection, schedule: Q01DX001 (ip), vehicle: saline): 90 % of control

Cc1cc(Cl)ccc1NS(=O)(=O)c1ccc(Br)cc1
T/C [5]: 90 % of control
T/C [6]: 90 % of control
T/C [8]: 95 % of control

CN(C)c1ccc(/C=C/c2ccc3ccccc3[n+]2[O-])cc1
T/C [3]: 99 % of control
T/C [1]: 97 % of control
T/C [2]: 117 % of control

Reference: PubChem BioAssay AID328 (DTP/NCI, 2004)
